This assay has as its target MAPKAP-K2 (Homo sapiens, UniProt P49137). The experiment in a line: MAPKAP-Kinase 2 Assay (33P-ATP peptide phosphorylation, filter plate). Format: biochemical. The arrangement: key: +: active; ++: more active; +++: very active. The settings on record: assays conducted at typically 1-100 μM. The procedure: MAPKAP-Kinase 2 Assay [Compound Preparation]
Compounds are dissolved in DMSO at a concentration of 3 mM and stored in aliquots at −20° C. Compounds in DMSO from these stock aliquots are diluted in 30% DMSO to produce initial working stock solutions of 1 mM and 3 mM. Both of these stock solutions are then subjected to 1:10 serial dilutions in 30% DMSO in order to prepare 3000, 1000, 300, 100, 30, 10, 3, 1, 0.1, 0.01 μM stock solutions. 5 μl of each stock solution is used per 50 μl reaction to give final assay concentrations of 300, 100, 30, 10, 3, 1, 0.3, 0.1, 0.01, 0.001 μM.
The kinase reaction is conducted in a round-bottomed polypropylene 96-well plate. MAPKAP-K2 is diluted to 25 mU/μl in diluent buffer (50 mM Tris/HCl. pH7.5, 0.1 mM EGTA, 0.1% (v/v) β-mercaptoethanol, 1 mg/ml BSA). 5 μl compound or 30% DMSO is added to each well followed by 25 μl substrate cocktail (10 μM ATP, 30 μM peptide (KKLNRTLSVA), 0.5 μCi ^33P-γ-ATP in 50 mM Tris pH7.5, 0.1 mM EGTA, 10 mM Mg-acetate, 0.1% BME). The reaction is initiated with the addition of 20 μl enzyme solution per well or 20 μl diluent buffer without enzyme. The plate is shaken for 10 sec and then left at room temperature for 30 min. The reaction is terminated with 50 μl 150 mM phosphoric acid. 90 μl of the reaction mixture is then transferred into a 96-well P81 filter plate (Millipore) and incubated at room temperature for 5 min. The filter plate is then washed 4 times with 200 μl 75 mM phosphoric acid per well on a plate vacuum manifold (Millipore) and dried in an oven for 2-3 h. Packard MicroScint ‘0’ (30 μl) is then added to each well, the plate is mixed for 30 min and subjected to liquid scintillation counting on a Packard TopCount.
[Interpretation] %Control=(X−B)/(Tot−B)×100 %Inhibition=100−% Control X=cpm of the test compound wells B=cpm of wells without enzyme Tot=cpm of wells with DMSO vehicle only
Sequence of MAPKAP-K2 (P49137 whole entry): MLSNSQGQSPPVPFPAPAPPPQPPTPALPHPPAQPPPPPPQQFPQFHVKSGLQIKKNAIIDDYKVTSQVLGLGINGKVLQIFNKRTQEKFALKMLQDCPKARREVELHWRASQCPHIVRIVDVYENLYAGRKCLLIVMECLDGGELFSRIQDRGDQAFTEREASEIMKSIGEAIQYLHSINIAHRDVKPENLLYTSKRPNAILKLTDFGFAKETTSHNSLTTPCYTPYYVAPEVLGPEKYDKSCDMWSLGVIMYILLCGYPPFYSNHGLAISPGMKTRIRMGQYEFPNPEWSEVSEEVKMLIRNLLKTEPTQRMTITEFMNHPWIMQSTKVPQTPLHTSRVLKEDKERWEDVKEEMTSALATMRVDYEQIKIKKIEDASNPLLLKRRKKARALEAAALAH
As for `CCOc1ccc(Nc2cc(NC3CCCNC3)nc3ccnn23)cc1` (stereo not drawn) [Compound 139], the MAPKAP-K2 activity result is reported as “+++”.
To `Ic1cccc(Nc2cc(NC3CCCNC3)nc3ccnn23)c1` (stereo not drawn) [Compound 140] belongs “+++”; to `Fc1ccccc1Nc1cc(NC2CCCNC2)nc2ccnn12` (stereo not drawn) [Compound 141], “+++”.

For the origin of these results see patent US20060205743A1, “Protein kinase inhibitors” (priority 2003, published 2006).
